The text below walks through data of publication PMC11989239, “Structure–Property Relationships in Novel Series of Photoswitchable Local Anesthetic Ethercaine Derivatives: Emphasis on Biological and Photophysical Properties” (International Journal of Molecular Sciences, 2025).

Counter-ions that a name gives are not always drawn. Like-named read-outs stand apart in the source and are kept apart here. Where only a bound is given, the exact number is not on record here.

Series [1] is described as follows: Solubility in water / aqueous solutions. It counts as physicochemical.
The nature of series [2]: Z-E isomerization half-life by UV/Vis spectrophotometry after 365 nm irradiation. The note with it: for τ1/2 (DMSO), Z-E isomerization half-life: RT, after 365 nm 5 min; for τ1/2 (Aqueous Kolliphor ELP), Z-E isomerization half-life: aqueous 4% Kolliphor ELP solution. It is filed as physicochemical. As to the method:
As one of the main physicochemical properties of photopharmacological agents, the Z-E half-life was investigated, which determines the stability of the Z-isomer. The Z-E half-lifes were measured using UV/Vis spectrophotometry, converting the compound to the Z-isomer by irradiating with UV light and observing the change in absorption intensity due to reverse Z-E relaxation.
Z-E isomerization half-life was determined using UV/Vis spectroscopy. Solutions were prepared and kept in the dark at RT before the experiment. First, the spectrum in the dark was registered ( PSSdark) , which corresponds to the photostationary state (PSS) with E-isomer predominance. Then, the cuvette with the solution was irradiated with UV light (λ = 365 nm) for 5 min to give the PSS with Z-isomer predominance. The corresponding spectrum was registered ( PSS365nm) . During the subsequent isomerization, the kinetics of changes in the absorption value were recorded at the wavelength of the absorption maximum corresponding to the E-isomer ( λmax(E)) . Then, lnAt/A0 values were calculated using the Equation (1):(1) lnAt/A0=lnAbsPSS(dark)−Abstime/AbsPSS(dark)−AbsPSS(365nm), where AbsPSS(dark) , AbsPSS(365nm), and Abstime are absorbance values at λmax(E) in the dark at the beginning of the experiment, after UV light (λ = 365 nm) irradiation, and at different time points from 0 to 60 min, respectively. Then, a graph was plotted depending on lnAt/A0 values from time, the trend line was calculated, and a first-order rate constant (k) for the thermal back Z-E isomerization reaction was obtained as the slope of the trend line.
For a first-order reaction, half-life t1/2 can be calculated using the Equation (2):(2) t1/2=ln2/k

Series [3] can be described thus: In vitro cytotoxicity, MTT test, 24 h incubation. It is filed as cell-based, human. The conditions noted are these: human, dermal fibroblast cells (DF2), DF2 fibroblasts. Here is the method: (§1) The culture of dermal fibroblast cells (DF2) was obtained from the collection of the Institute of Cytology of the Russian Academy of Sciences (Saint Petersburg, Russia). The cells were cultured in plastic vials with a cell growth surface of 25 cm^2 (Costar, Richmond, VA, USA) on DMEM/F12 medium with the addition of L-glutamine and 10% fetal bovine serum (FBS) (PanEco, Moscow, Russia). The cells were cultured at 37 °C in a humid atmosphere with a content of 5% CO2 (Binder CO2 incubator, Germany). Cell lines from 3 to 7 passages were used in the work. To conduct experiments to evaluate the cytotoxicity of compounds, cells were sieved into 96-well culture plates at a concentration of 10^5 cells per ml, incubated at 37 °C (humidified atmosphere, 5% carbon dioxide) for 24–28 h. Further, 50 µL of the studied substances was added. The cells were incubated with the compounds for 24 h at 37 °C. Next, the cytotoxic effect of the substances was evaluated by a colorimetric method using an MTT test and visually, using an inverted microscope. The criterion for evaluating the specific activity of the compound was the value of IC50, the concentration at which 50% death of culture cells was noted.
A general note: Formazan colour is commonly taken as a measure of viable cells.

In series [4] the test system is human dermal fibroblasts (DF2). The series is described as follows: In vitro cytotoxicity, MTT test, 24 h incubation. It counts as cell-based. Here is the method:
as §1

The test system of series [5] is rabbit eye cornea. The series is described as follows: Surface anesthesia on the rabbit cornea, Regnier method (Regnier index). It counts as in vivo. The note with it: 1% solution, 0.2 mL instilled, mean ± SD. Here is the method: Thus, the main biological property investigated in this work was the local anesthetic activity of the new derivatives in the dark (with a predominance of the E-form) and under irradiation (with a predominance of the Z-form). The evaluation of local anesthetic activity was conducted on the rabbit cornea using the Regnier method. […] RI values in darkness (451 ± 40) and under UV light irradiation (469 ± 37) for a 2% solution of lidocaine, used as a reference drug, were obtained previously and are independent of light exposure. A 4% aqueous solution of Kolliphor® ELP, used for solubilizing ethercaine and its derivatives and lacking intrinsic local anesthetic activity, was employed as a negative control. In vitro cytotoxicity studies were conducted to initially assess the safety of the compounds.
Non-anesthetized, mature male rabbits of a Soviet chinchilla breed weighing 2–3 kg, obtained from the KrolInfo farm (Orekhovo-Zuyevo, Russia), were used in this study. Animals were kept under standard conditions (humidity 50–60%, temperature 19–22 °C). A 12-h lighting cycle was maintained. Each animal was kept in a separate cage. Animals had ad libitum access to standard extruded feed “CHARA” (CJSC “Assortiment-Agro”, Turakovo Village, Moscow region, Russia) and clean drinking water. Water treatment was performed using a “7 TECHNOCOM” block modular system (LLC “7 TECH”, Moscow, Russia). For in vivo, surface anesthesia measurements, an in-house-made anesthesiometer with a fixed length of a nylon filament (l = 1.0 cm, d = 0.125 mm) was used. Statistical analysis was performed, and figures were plotted using the Python programming language’s standard functions and a Matplotlib package (Version 3.8) for Python. All biological data conformed to a normal distribution (Shapiro–Wilk’s W test, p > 0.05). All data are expressed as the mean ± standard deviation.
For determination of the rabbit eye cornea’s sensitivity using the surface anesthesia method, 12 rabbits with a basic sensitivity threshold (sensitivity threshold of the eye cornea to tactile impact of the anesthesiometer) of 1–2 touches were selected. They were used in experiments repeatedly with an interval of at least 5 days between the experiments. Each eye was considered as a separate experimental point. Three animals were used in each of the experimental groups (n = 6). Two animals (n = 4) were used in each of the negative control groups and in each of experimental groups with UV irradiation due to the expected lack of the effect and to minimize the number of animals in the experiment. Animals were randomly divided into groups. Before an experiment, the animals were immobilized, leaving the head free. Before each experiment, the animals’ eyelashes were cut out, and the basic threshold of sensitivity of the eye cornea to tactile contact was determined using an anesthesiometer.
The irradiation modes were described earlier. Experiments with animals were carried out in a darkened room with a 50W LED light source (λ = 625 nm), which lies outside the absorption bands of the UV/Vis spectrum of the test compound. Before the experiments, solutions of test compounds were irradiated for 5 min with UV light (λ = 365 nm, LED flashlight, 0.5 W).
The adaptation of a model of surface anesthesia on the rabbit’s cornea using the Regnier method for the study of light-controlled local anesthetics was described earlier. The test solution (0.2 mL) of the required concentration (2% for the lidocaine or 1% for the ethercaine and its derivatives) was instilled into each conjunctival sac. After that, the sensitivity threshold of the eye cornea to tactile impact was determined. The first determination was performed at the 8th minute of the experiment and then at the 10th, 12th, 15th, 20th, 25th, 30th, 35th, 40th, 45th, 50th, 55th, and 60th min (13 values overall). […]

In series [6] the test system is rabbit eye cornea. More on the design: method as in PMID 35628162. The conditions noted are these: 2% solution of lidocaine, obtained previously, cited from earlier work; for Local Anesthetic Activity (Regnier Index, Min—13, Max—1300) Under Irradiation (λ = 365 nm): UV light irradiation.

As a reminder, the IC50 is the concentration that gives 50% inhibition. A low value points to higher potency. With `O=C(CN1CCOCC1)Nc1ccc(/N=N/c2ccccc2)cc1` [Compound 2], the “Solubility in aqueous solutions (in words)” value in series [1] (seen in the cytotoxicity test) is on record as “poor solubility in aqueous solutions at concentrations above 200 µM”. Moreover, in series [2], the “τ1/2 (DMSO), Z-E isomerization half-life” value is given as 30.5 h and the “τ1/2 (Aqueous Kolliphor ELP), Z-E isomerization half-life” value (“τ1/2 (Aqueous Kolliphor ELP)” below) is 0.517 h. In series [3], this compound displayed an IC50 at 24 h of more than 200 µM.
`Cl.Fc1cccc(F)c1N=Nc1c(F)cc(OCCN2CCOCC2)cc1F` [Compound 20h, 2,2′,6,6′-tetrafluoro-4-(2-(N-morpholino)-ethoxy)-azobenzene hydrochloride]: in series [2], the “τ1/2 (DMSO), Z-E isomerization half-life” value came out at 1190 h and the “τ1/2 (Aqueous Kolliphor ELP)” value came to 281 h. In series [4], this compound came in with a 50% inhibitory concentration (IC50) of 440 µM. The “Local Anesthetic Activity (Regnier Index, Min—13, Max—1300) In the Dark” value in the series on rabbit eye cornea [5] (in the dark (E-form predominance)) is on record as 353 ± 10 (n = 6). Further, the “Local Anesthetic Activity (Regnier Index, Min—13, Max—1300) Under Irradiation (λ = 365 nm)” value in the series on rabbit eye cornea [5] (solution irradiated with UV 365 nm (Z-form predominance)) is 35 ± 7 (n = 4).
The term solubility denotes how much of the substance goes into solution per volume. Low values mean a poorly soluble substance, high ones a readily soluble substance. With `c1csc(/N=N/c2ccc(OCCN3CCOCC3)cc2)n1` [Compound 25a, 2-(4-(2-(N-morpholino)-ethoxy)-phenylazo)-thiazole hydrochloride], the solubility in series [1] (water) was more than 100 mg/mL. Further, in series [2], the “τ1/2 (DMSO), Z-E isomerization half-life” value amounted to 0.2 h and the “τ1/2 (Aqueous Kolliphor ELP)” value was 0.217 h. In series [3], this compound displayed an IC50 at 24 h of 200 µM.
As to `CCN(CC)CC(=O)Nc1c(C)cccc1C` [Lidocaine 2%, Lidocaine], the IC50 at 24 h in series [3] is more than 5000 µM. In addition, in the series with rabbit eye cornea [6] (listed as lidocaine), the “Local Anesthetic Activity (Regnier Index, Min—13, Max—1300) Under Irradiation (λ = 365 nm)” value is on record as 469 ± 37 and the “Local Anesthetic Activity (Regnier Index, Min—13, Max—1300) In the Dark” value is given as 451 ± 40. Further, in the series on rabbit eye cornea [6], the “Local Anesthetic Activity (Regnier Index, Min—13, Max—1300) Under Irradiation (λ = 365 nm)” value is listed as 469 ± 37 (n = 8) and the “Local Anesthetic Activity (Regnier Index, Min—13, Max—1300) In the Dark” value is recorded as 451 ± 40 (n = 8).
